Experiments:
KRAS G12V = KRAS G12V (Homo sapiens (Human), UniProt P01116+P62937, G12V); experiment: Ras-Raf (BRAF RBD) disruption / FRET / MOA assay, KRAS G12V; assay type: biochemical; details: read-out: IC50* KRAS G12V FRET data
Method in brief: (§1)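 TR-FRET read-out: a drop in ratio relative to DMSO wells marks disruption of the Ras:RAF complex, reported as IC50. Compounds (3-fold series, 10 points, top 30 μM final) incubated 3 h at 25° C before Eu-anti-His 10 nM and APC-anti-GST 50 nM, 1.5 h more.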

KRAS G13D = KRAS G13D (Homo sapiens (Human), UniProt P01116+P62937, G13D); experiment: Ras-Raf (BRAF RBD) disruption / FRET / MOA assay, KRAS G13D; assay type: biochemical; details: read-out: IC50* KRAS G13D FRET data
Method in brief: as §1

KRAS G12D = KRAS G12D (Homo sapiens (Human), UniProt P01116+P62937, G12D); experiment: Ras-Raf (BRAF RBD) disruption / FRET / MOA assay, KRAS G12D; assay type: biochemical; details: Ras-Raf disruption/FRET/MOA assay; class symbols; read-out: KRAS G12D FRET data IC50
Method in brief: as §1

[1] = system: NCI-H358 cells (K-Ras G12C); experiment: Potency assay: pERK in NCI-H358 cells; assay type: cell-based, human; details: Homo sapiens, NCI-H358; H358 KRAS G12C; read-out: pERK EC50
Method in brief: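 pERK decrease read by AlphaLISA SureFire p-ERK1/2 or In-Cell Western after 4 h compound exposure at 37 °C, 5% CO2.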

K-Ras G13C = K-Ras G13C (Homo sapiens (Human), UniProt P01116+P62937, G13C); experiment: Ras-Raf (BRAF RBD) disruption / FRET / MOA assay, KRAS G13C; assay type: biochemical; details: KRAS G13C; Ras-Raf disruption/FRET/MOA assay; read-out: IC50* KRAS G13C FRET data
Method in brief: as §1

K-Ras G12C = K-Ras G12C (Homo sapiens (Human), UniProt P01116+P62937, G12C); experiment: Ras-Raf (BRAF RBD) disruption / FRET / MOA assay, KRAS G12C; assay type: biochemical; details: KRAS G12C; Ras-Raf disruption/FRET/MOA assay; read-out: IC50* KRAS G12C FRET data
Method in brief: as §1

NRAS G12C = NRAS G12C (Homo sapiens (Human), UniProt P01111+P62937, G12C); experiment: Ras-Raf (BRAF RBD) disruption / FRET / MOA assay, NRAS G12C; assay type: biochemical; details: read-out: IC50* NRAS G12C FRET data
Method in brief: as §1

KRAS G12S = KRAS G12S (Homo sapiens (Human), UniProt P01116+P62937, G12S); experiment: Ras-Raf (BRAF RBD) disruption / FRET / MOA assay, KRAS G12S; assay type: biochemical; details: Ras-Raf disruption/FRET/MOA assay; class symbols; read-out: KRAS G12S FRET data IC50
Method in brief: as §1

NCI-H358 (K-Ras G12C) = experiment: CellTiter-Glo cell viability assay, NCI-H358; assay type: cell-based, human; details: Homo sapiens, NCI-H358, 120 h, NCI-H358, 5-day treatment; class symbols; read-out: Additional H358 Cell Viability assay data (K-Ras G12C, IC50)
Method in brief: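 Compounds dispensed directly onto seeded K-Ras mutant cells; plates read on day 5 after ~30 min equilibration to room temperature, by CellTiter-Glo luminescence. Signal normalized as (sample/mean DMSO)×100, then fitted to a four-parameter logistic curve.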

KRAS WT = KRAS WT (Homo sapiens (Human), UniProt P01116+P62937); experiment: Ras-Raf (BRAF RBD) disruption / FRET / MOA assay, KRAS WT; assay type: biochemical; details: read-out: IC50* KRAS WT FRET data
Method in brief: as §1

NRAS G12C, sequence (P01111 whole entry G12C): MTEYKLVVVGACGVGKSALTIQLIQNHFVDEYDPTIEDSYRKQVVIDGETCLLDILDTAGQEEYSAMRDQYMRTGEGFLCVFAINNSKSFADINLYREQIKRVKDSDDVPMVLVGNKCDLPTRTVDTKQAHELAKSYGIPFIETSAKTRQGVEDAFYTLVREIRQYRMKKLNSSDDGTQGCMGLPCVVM
NRAS G12C, sequence (P62937 whole entry): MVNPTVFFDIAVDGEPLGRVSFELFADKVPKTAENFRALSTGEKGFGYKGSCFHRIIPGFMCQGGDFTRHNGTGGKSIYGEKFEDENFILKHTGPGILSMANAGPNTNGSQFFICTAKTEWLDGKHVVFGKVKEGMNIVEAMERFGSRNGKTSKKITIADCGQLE
KRAS WT, sequence (P01116-2 other isoform, or with tags, fused parts or gaps): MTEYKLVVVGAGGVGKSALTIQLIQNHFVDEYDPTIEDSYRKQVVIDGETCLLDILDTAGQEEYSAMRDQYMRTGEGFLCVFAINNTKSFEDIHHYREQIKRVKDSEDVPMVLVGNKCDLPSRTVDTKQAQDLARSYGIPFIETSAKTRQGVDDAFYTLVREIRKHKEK
KRAS WT, sequence (P62937 whole entry): as the sequence (P62937 whole entry) above
KRAS G12V, sequence (P01116-2 other isoform, or with tags, fused parts or gaps G12V): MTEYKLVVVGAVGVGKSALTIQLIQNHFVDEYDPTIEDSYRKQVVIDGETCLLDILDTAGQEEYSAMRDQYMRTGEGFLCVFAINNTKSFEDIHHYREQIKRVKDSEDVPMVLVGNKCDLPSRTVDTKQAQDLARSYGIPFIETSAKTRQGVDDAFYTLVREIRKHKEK
KRAS G12V, sequence (P62937 whole entry): as the sequence (P62937 whole entry) above
KRAS G12D, sequence (P01116-2 other isoform, or with tags, fused parts or gaps G12D): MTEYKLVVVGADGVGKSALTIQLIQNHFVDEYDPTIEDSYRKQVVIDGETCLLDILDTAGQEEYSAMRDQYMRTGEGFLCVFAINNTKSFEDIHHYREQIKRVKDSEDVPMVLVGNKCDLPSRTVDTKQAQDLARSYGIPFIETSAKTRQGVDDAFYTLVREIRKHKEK
KRAS G12D, sequence (P62937 whole entry): as the sequence (P62937 whole entry) above
KRAS G12S, sequence (P01116-2 other isoform, or with tags, fused parts or gaps G12S): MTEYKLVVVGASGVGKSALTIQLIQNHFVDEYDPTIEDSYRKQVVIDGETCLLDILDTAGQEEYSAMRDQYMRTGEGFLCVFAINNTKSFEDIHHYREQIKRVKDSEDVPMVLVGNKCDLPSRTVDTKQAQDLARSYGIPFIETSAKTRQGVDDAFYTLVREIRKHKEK
KRAS G12S, sequence (P62937 whole entry): as the sequence (P62937 whole entry) above
K-Ras G12C, sequence (P01116-2 other isoform, or with tags, fused parts or gaps G12C): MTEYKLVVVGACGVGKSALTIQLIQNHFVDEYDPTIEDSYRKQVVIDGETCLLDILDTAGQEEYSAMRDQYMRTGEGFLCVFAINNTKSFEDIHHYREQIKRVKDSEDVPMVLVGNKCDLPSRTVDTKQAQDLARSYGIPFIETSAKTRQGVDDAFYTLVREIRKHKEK
K-Ras G12C, sequence (P62937 whole entry): as the sequence (P62937 whole entry) above
KRAS G13D, sequence (P01116-2 other isoform, or with tags, fused parts or gaps G13D): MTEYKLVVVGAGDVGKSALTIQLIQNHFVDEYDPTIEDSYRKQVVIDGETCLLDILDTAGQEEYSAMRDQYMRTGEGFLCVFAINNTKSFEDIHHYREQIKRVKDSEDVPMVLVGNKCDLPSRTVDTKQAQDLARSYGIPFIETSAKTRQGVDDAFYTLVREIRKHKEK
KRAS G13D, sequence (P62937 whole entry): as the sequence (P62937 whole entry) above
K-Ras G13C, sequence (P01116-2 other isoform, or with tags, fused parts or gaps G13C): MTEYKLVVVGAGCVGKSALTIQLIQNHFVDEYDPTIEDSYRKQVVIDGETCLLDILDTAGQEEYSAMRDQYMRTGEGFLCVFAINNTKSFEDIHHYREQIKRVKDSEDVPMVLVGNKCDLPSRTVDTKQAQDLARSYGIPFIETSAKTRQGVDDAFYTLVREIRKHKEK
K-Ras G13C, sequence (P62937 whole entry): as the sequence (P62937 whole entry) above

| SMILES | IC50 (KRAS G12V) | IC50 (KRAS G13D) | IC50 (KRAS G12D) | EC50 [1] | IC50 (K-Ras G13C) | IC50 (K-Ras G12C) | IC50 (NRAS G12C) | IC50 (KRAS G12S) | IC50 (NCI-H358 (K-Ras G12C)) | IC50 (KRAS WT) |
| --- | --- | --- | --- | --- | --- | --- | --- | --- | --- | --- |
| C=CC(=O)N1CC[C@H](C(=O)N(CC)[C@H](C(=O)N[C@H]2Cc3cccc(c3)-c3ccc4c(c3)c(c(-c3cccnc3[C@H](C)OC)n4CC)CC(C)(C)COC(=O)[C@@H]3CCCN(N3)C2=O)C(C)C)C1 (atropisomer, axis not shown) [Example A399] | 1000 to 10000 nM | 1000 to 10000 nM | > 10000 nM | < 5000 nM | 1000 to 10000 nM | 100 to 1000 nM | 100 to 1000 nM | 1000 to 10000 nM | 10 to 100 nM | 1000 to 10000 nM |
| C=CC(=O)N1C[C@H](C(=O)N(C)[C@H](C(=O)N[C@H]2Cc3cccc(c3)-c3ccc4c(c3)c(c(-c3cccnc3[C@H](C)OC)n4CC)CC(C)(C)COC(=O)[C@@H]3CCCN(N3)C2=O)C(C)C)[C@H](C(F)(F)F)C1 (atropisomer, axis not shown) [Example A400] | > 10000 nM | > 10000 nM | > 10000 nM | < 5000 nM | 1000 to 10000 nM | 10 to 100 nM | 10 to 100 nM | > 10000 nM | 10 to 100 nM | > 10000 nM |
| CC#CC(=O)N1C[C@H](C)[C@H](C(=O)N(C)[C@H](C(=O)N[C@H]2Cc3cccc(c3)-c3ccc4c(c3)c(c(-c3cccnc3[C@H](C)OC)n4CC)CC(C)(C)COC(=O)[C@@H]3CCCN(N3)C2=O)C2CCCC2)C1 (atropisomer, axis not shown) [Example A402] | 1000 to 10000 nM | > 10000 nM | > 10000 nM | < 5000 nM | 1000 to 10000 nM | 100 to 1000 nM | 100 to 1000 nM | 1000 to 10000 nM | 10 to 100 nM | 1000 to 10000 nM |
| C=CC(=O)N1C[C@@H](C)N(C(=O)N(C)[C@H](C(=O)N[C@H]2Cc3nc(cs3)-c3ccc4c(c3)c(c(-c3cccnc3[C@H](C)OC)n4CC)CC(C)(C)COC(=O)[C@@H]3CCCN(N3)C2=O)C(C)C)C[C@H]1C (atropisomer, axis not shown) [Example A406] | 100 to 1000 nM | 100 to 1000 nM | 1000 to 10000 nM | < 5000 nM | 100 to 1000 nM | 100 to 1000 nM | 100 to 1000 nM | 100 to 1000 nM | 10 to 100 nM | 100 to 1000 nM |
| C=CC(=O)N1C[C@@H]2C[C@H]1CN2C(=O)N(C)[C@H](C(=O)N[C@H]1Cc2nc(cs2)-c2ccc3c(c2)c(c(-c2cccnc2[C@H](C)OC)n3CC)CC(C)(C)COC(=O)[C@@H]2CCCN(N2)C1=O)C(C)C (atropisomer, axis not shown) [Example A409] | 100 to 1000 nM | 1000 to 10000 nM | 100 to 1000 nM | < 5000 nM | 100 to 1000 nM | 100 to 1000 nM | 100 to 1000 nM | 100 to 1000 nM | 10 to 100 nM | 100 to 1000 nM |
| CCn1c(-c2cccnc2[C@H](C)OC)c2c3cc(ccc31)-c1csc(n1)C[C@H](NC(=O)[C@H](C(C)C)N1CC[C@]3(CCN(C(=O)C#CC(C)(C)N(C)C)C3)C1=O)C(=O)N1CCC[C@H](N1)C(=O)OCC(C)(C)C2 (atropisomer, axis not shown) [Example A411] | 1000 to 10000 nM | 1000 to 10000 nM | 1000 to 10000 nM | < 5000 nM | 100 to 1000 nM | < 10 nM | < 10 nM | 1000 to 10000 nM | < 10 nM | 1000 to 10000 nM |
| CC#CC(=O)N1CC[C@]2(CCN([C@H](C(=O)N[C@H]3Cc4cccc(c4)-c4ccc5c(c4)c(c(-c4cccnc4[C@H](C)OC)n5CC)CC(C)(C)COC(=O)[C@@H]4CCCN(N4)C3=O)C(C)C)C2=O)C1 (atropisomer, axis not shown) [Example A412] | 1000 to 10000 nM | 1000 to 10000 nM | 1000 to 10000 nM | < 5000 nM | 100 to 1000 nM | 100 to 1000 nM | 100 to 1000 nM | 1000 to 10000 nM | 10 to 100 nM | 1000 to 10000 nM |
| CC#CC(=O)N1C[C@H](C)[C@H](C(=O)N(C)[C@H](C(=O)N[C@H]2Cc3cccc(c3)-c3ccc4c(c3)c(c(-c3cccnc3[C@H](C)OC)n4CC)CC(C)(C)COC(=O)[C@@H]3CCCN(N3)C2=O)C(C)C)C1 (atropisomer, axis not shown) [Example A413] | 1000 to 10000 nM | 1000 to 10000 nM | > 10000 nM | < 5000 nM | 1000 to 10000 nM | 100 to 1000 nM | 100 to 1000 nM | 1000 to 10000 nM | 10 to 100 nM | 1000 to 10000 nM |
| CCn1c(-c2cccnc2[C@H](C)OC)c2c3cc(ccc31)-c1cccc(c1)C[C@H](NC(=O)[C@H](C(C)C)N1CC[C@@]3(CCN(C(=O)C#CC(C)(C)N(C)C)C3)C1=O)C(=O)N1CCC[C@H](N1)C(=O)OCC(C)(C)C2 (atropisomer, axis not shown) [Example A414] | 1000 to 10000 nM | > 10000 nM | > 10000 nM | < 5000 nM | 1000 to 10000 nM | < 10 nM | < 10 nM | 1000 to 10000 nM | < 10 nM | > 10000 nM |
| C=CC(=O)N1CCC12CCN(C(=O)N(C)[C@H](C(=O)N[C@H]1Cc3nc(cs3)-c3ccc4c(c3)c(c(-c3cccnc3[C@H](C)OC)n4CC)CC(C)(C)COC(=O)[C@@H]3CCCN(N3)C1=O)C(C)C)CC2 (atropisomer, axis not shown) [Example A415] | 100 to 1000 nM | 100 to 1000 nM | 1000 to 10000 nM | < 5000 nM | 100 to 1000 nM | 100 to 1000 nM | 100 to 1000 nM | 100 to 1000 nM | 10 to 100 nM | 100 to 1000 nM |
| C=CC(=O)N1C[C@@H](C)N(C(=O)N(C)[C@H](C(=O)N[C@H]2Cc3nc(cs3)-c3ccc4c(c3)c(c(-c3cccnc3[C@H](C)OC)n4CC)CC(C)(C)COC(=O)[C@@H]3CCCN(N3)C2=O)C(C)C)C[C@@H]1C (atropisomer, axis not shown) [Example A418] | 10 to 100 nM | 100 to 1000 nM | 100 to 1000 nM | < 5000 nM | 10 to 100 nM | 10 to 100 nM | 10 to 100 nM | 10 to 100 nM | 10 to 100 nM | 10 to 100 nM |
| C=CC(=O)N1CC2(C1)CN(C(=O)N(C)[C@H](C(=O)N[C@H]1Cc3nc(cs3)-c3ccc4c(c3)c(c(-c3cccnc3[C@H](C)OC)n4CC)CC(C)(C)COC(=O)[C@@H]3CCCN(N3)C1=O)C(C)C)C2 (atropisomer, axis not shown) [Example A419] | 100 to 1000 nM | 1000 to 10000 nM | 1000 to 10000 nM | < 5000 nM | 100 to 1000 nM | 100 to 1000 nM | 10 to 100 nM | 100 to 1000 nM | < 10 nM | 100 to 1000 nM |
| C=CC(=O)N1CCN(C(=O)N(C)[C@H](C(=O)N[C@H]2Cc3nc(cs3)-c3ccc4c(c3)c(c(-c3cccnc3[C@H](C)OC)n4CC)CC(C)(C)COC(=O)[C@@H]3CCCN(N3)C2=O)C(C)C)[C@@H](C)C1 (atropisomer, axis not shown) [Example A421] | 100 to 1000 nM | 100 to 1000 nM | 1000 to 10000 nM | < 5000 nM | 10 to 100 nM | 10 to 100 nM | 10 to 100 nM | 100 to 1000 nM | 10 to 100 nM | 100 to 1000 nM |
| C=CC(=O)NC[C@@H]1CCN1C(=O)N(C)[C@H](C(=O)N[C@H]1Cc2nc(cs2)-c2ccc3c(c2)c(c(-c2cccnc2[C@H](C)OC)n3CC)CC(C)(C)COC(=O)[C@@H]2CCCN(N2)C1=O)C(C)C (atropisomer, axis not shown) [Example A422] | 1000 to 10000 nM | 1000 to 10000 nM | 1000 to 10000 nM | < 5000 nM | 100 to 1000 nM | 100 to 1000 nM | 100 to 1000 nM | 1000 to 10000 nM | 10 to 100 nM | 1000 to 10000 nM |
| CC#CC(=O)N1CC[C@@]2(CCN([C@H](C(=O)N[C@H]3Cc4cccc(c4)-c4ccc5c(c4)c(c(-c4cccnc4[C@H](C)OC)n5CC)CC(C)(C)COC(=O)[C@@H]4CCCN(N4)C3=O)C(C)C)C2=O)C1 (atropisomer, axis not shown) [Example A426] | 1000 to 10000 nM | > 10000 nM | > 10000 nM | < 5000 nM | 1000 to 10000 nM | 100 to 1000 nM | 1000 to 10000 nM | 1000 to 10000 nM | 10 to 100 nM | 1000 to 10000 nM |
